Laboratory results published in US6465496B1, “Torsemide polymorphs” (Teva Pharmaceutical Industries, Ltd., priority 1999, dated 2002).

Tests used:
Assay type in all cases: physicochemical
[1] = solubility of amorphous torsemide compared with crystalline forms; details: compared with crystalline forms reported in U.S. Pat. No. 5,914,336, U.S. Pat. No. Re. 34,672 and WO 00/20395
[2] = stability of the crystal form in an ethanol slurry; details: stirred at room temperature
Experimental: (§1) In another embodiment of the present invention, torsemide modification I may be made from torsemide modification II by reslurry in ethanol. By the process of the present invention, torsemide modification II is stirred at room temperature in ethanol for a time sufficient to induce the transformation of torsemide modification II to torsemide modification I. Preferably the mixture is stirred for 2 hours. Torsemide modification I is isolated upon filtering the mixture followed by drying under high vacuum at a temperature of about 40° C. to about 60° C. for a sufficient time to complete drying. Drying is complete upon reaching constant weight. It has been observed that torsemide modification I is stable in an ethanol slurry for at least 65 hours.
as §1, with “dimethyl formamide (DMF).” for “ethanol.”, “methods” for “process”, “DMF” for “ethanol”, “I.” for “I. Preferably the mixture is stirred for 2 hours.”, “It has been observed that torsemide modification I is stable in an ethanol slurry for at least 65 hours.” left out

[3] = pH at which torsemide begins to precipitate on acidifying the basified aqueous/alcohol solution; details: water/organic solvent (isopropanol or ethanol) solution, pH lowered with acid
Experimental: An organic solvent is then added to the torsemide solution with stirring. Suitable solvents include water soluble or partially water soluble alcohols such as propanol, isopropanol and ethanol. Preferably, the solvent is isopropanol or ethanol. The pH of the torsemide solution is then lowered by the addition of a suitable acid until the solution begins to become cloudy and torsemide Dupont Form 2 begins to precipitate. Torsemide begins to precipitate at about pH 6. Suitable acids include acetic acid, hydrochloric acid, sulfuric acid, mineral acids and the like. Acetic acid is preferred. Since torsemide is known to decompose at pH 3.0, the pH of the solution is preferably maintained at about 6±0.1 with a minimum pH of […] and a maximum pH of 7.5±0.5. Torsemide Dupont Form 2 is then isolated by filtration and drying to remove solvent.
An organic solvent is then added to the torsemide solution with stirring. Suitable solvents include water soluble or partially water soluble alcohols such as propanol, isopropanol and ethanol. Preferably, the solvent is isopropanol or ethanol. The pH of the torsemide solution is then lowered by the addition of a suitable acid until the solution begins to become cloudy and torsemide Dupont Form 2 solvent adduct begins to precipitate. Torsemide begins to precipitate at about pH 6. […]

Cc1cccc(Nc2ccncc2S(=O)(=O)NC(=O)NC(C)C)c1 [amorphous torsemide]
solubility relative to crystalline forms of torsemide [1]: more soluble than crystalline forms of torsemide

Cc1cccc(Nc2ccncc2S(=O)(=O)NC(=O)NC(C)C)c1 [torsemide modification I]
time stable in an ethanol slurry [2]: at least 65 hours

Cc1cccc(Nc2ccncc2S(=O)(=O)NC(=O)NC(C)C)c1 [torsemide, 1-Isopropyl-3-[(4-m-toluidino-3-pyridyl)sulfonyl]urea]
pH at which torsemide begins to precipitate [3]: about 6 pH
